Source: PMC11375437, “Selective labelling of GBA2 in cells with fluorescent β-D-arabinofuranosyl cyclitol aziridines” (Chemical Science, 2024)
“And” between values parts separate entries of the source, which are not always exact repeats. Equal values may be shown once. Read-outs that look alike come from different tables or passages of the source.

Target: T1, GBA2 (Homo sapiens, UniProt Q9HCG7)
T1 sequence (Q9HCG7 1-927): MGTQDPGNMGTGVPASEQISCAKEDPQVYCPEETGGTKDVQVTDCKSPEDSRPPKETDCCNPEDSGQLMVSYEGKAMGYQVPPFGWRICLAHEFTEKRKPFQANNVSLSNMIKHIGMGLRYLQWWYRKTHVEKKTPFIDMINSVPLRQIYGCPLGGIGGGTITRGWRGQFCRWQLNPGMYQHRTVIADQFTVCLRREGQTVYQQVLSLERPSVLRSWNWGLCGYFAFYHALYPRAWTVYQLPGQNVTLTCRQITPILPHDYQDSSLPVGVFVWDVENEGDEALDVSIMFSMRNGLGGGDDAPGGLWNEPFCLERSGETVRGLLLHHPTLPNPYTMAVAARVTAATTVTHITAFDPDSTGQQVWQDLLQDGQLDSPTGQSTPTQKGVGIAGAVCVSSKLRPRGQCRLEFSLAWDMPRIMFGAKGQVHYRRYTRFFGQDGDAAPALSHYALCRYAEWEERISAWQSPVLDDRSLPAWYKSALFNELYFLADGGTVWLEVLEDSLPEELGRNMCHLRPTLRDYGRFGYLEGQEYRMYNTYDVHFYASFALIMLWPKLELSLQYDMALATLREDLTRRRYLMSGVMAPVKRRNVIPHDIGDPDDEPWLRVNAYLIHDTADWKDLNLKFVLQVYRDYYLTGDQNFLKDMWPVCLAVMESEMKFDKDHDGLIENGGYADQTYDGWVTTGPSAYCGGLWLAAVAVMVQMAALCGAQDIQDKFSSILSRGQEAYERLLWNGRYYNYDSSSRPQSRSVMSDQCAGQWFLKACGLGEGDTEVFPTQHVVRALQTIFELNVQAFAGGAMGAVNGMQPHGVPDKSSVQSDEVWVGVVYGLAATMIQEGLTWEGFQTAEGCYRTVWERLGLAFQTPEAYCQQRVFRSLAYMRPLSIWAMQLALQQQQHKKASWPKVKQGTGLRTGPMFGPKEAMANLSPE
Experiment: 4MU fluorogenic substrate assay for apparent IC50, GBA2
Type: biochemical
Parameters: expressed in transfected cells; host or cells: HEK293T GBA1/GBA2 KO (CRISPR/Cas9), GBA2 overexpressed
Details: 4MU-β-D-Glc
Text: To identify an ABP that selectively labels human GBA2 over GBA1 and GBA3, a library of cyclophellitol-based ABPs with varying configurations (ESI Fig. S1 ^†) was screened for their selectivity towards human retaining β-glucosidases. For this purpose, we initially assessed the inhibition properties of the compounds using recombinant human GBA1 (rhGBA1, imiglucerase), lysates of cells overexpressing GBA2 or GBA3 (both in combination with knockout of the other retaining β-glucosidases). In a preliminary screen, enzymes were pre-incubated for 30 min with the tested compounds, followed by the addition of the fluorogenic substrate, 4MU-β-D-Glc, and subsequent quantification of released fluorescent 4MU after 30 minutes. This screening brought our attention to a new set of β-D-Araf cyclitol aziridines as potential GBA2 inhibitors. […] On the other hand, the biotin-tagged β-D-Araf compound 6 is a poor inhibitor of all three glucosidases (apparent IC50 > 8 μM). Arabinofuranosyl cyclitol 12–20 with various configurations (α-L-Araf and β-L-Araf) were also evaluated (ESI Fig. S1 ^†).
Recombinant human GBA1 (rhGBA1, Imiglucerase) was kindly provided by Sanofi Genzyme (Cambridge, MA, USA). 4-Methylumbelliferyl-β-D-glucopyranoside substrates were purchase from Glycosynth (Warrington Cheshire, UK). Protein concentration was measured using the Pierce BCA assay kit (Thermo Fisher Scientific, Waltham, MA, USA). Harvested cells (cell pellets), cell lysates and tissue homogenates not used directly were stored at -80 °C.
HEK293T (CRL‐3216™) cells were purchased from ATCC (Manassas, VA, USA). HEK293T cells were cultured in DMEM medium (Sigma‐Aldrich), supplied with 10% (v/v) FCS, 0.1% (w/v) penicillin/streptomycin and 1% (v/v) Glutamax, under 37 °C and 5% or 7% CO2. […]
2.3 Generation of cells genetically modified for β-glucosidase expression For overexpression of the different β-glucosidases, "wildtype" HEK293T cells, HEK293T cells with GBA2 knockout (KO) or HEK293T cells with both GBA1 and GBA2 KO were used, following by the overexpression (OE) of targeted β-glucosidases using the constructs as described in references.1,2 Either GBA2 or GBA3 were overexpressed in GBA1/GBA2 KO HEK293T (generated by the CRISPR/Cas9 method2) to generate GBA1/2 KOs with GBA2 (or GBA3) for overexpression in HEK293T cells as indicated, or using "wildtype" HEK293T cells containing endogenous GBA1 and GBA2 to overexpress both GBA2 and GBA3, these were generated as described in our previous report.1,2 […]
Cells were cultured with the method described above to 80-90% confluency, and were isolated, washed with Dulbecco′s phosphate buffered saline (PBS) and subsequently collected using the following method.3 HEK293T and RPE-1 cells were easily detached from the culture plate by trypsin treatment after which some DMEM medium was added. The cells were collected by pipetting and DMEM medium was removed by centrifuging. The cells were washed with cold PBS three times, after which they were centrifuged to remove PBS and then stored at –80 °C for further use or lysed in potassium phosphate buffer (K2HPO4-KH2PO4, 25 mM, pH 6.5, supplemented with 0.1% (v/v) Triton X-100 and protease inhibitor cocktail (EDTA-free, Roche, Basel, Switzerland)) by sonication with a Polytron PT 1300D sonicator (Kinematica, Luzern, Switzerland). After sonication, lysed mixtures were centrifuged at 10,000 x g for 3 min at 4°C, and the supernatants where desired β-glucosidases exist were used for the experiment.
2.5 4MU fluorogenic substrate assay for apparent IC50 determination
4MU fluorogenic substrate assays (using recombination human rhGBA1 or lysates of HEK293T cells) were conducted in 96-well plates at 37 °C. Samples were diluted with McIlvaine buffer (150 mM citric acid-Na2HPO4) to a final volume of 25 μL, at the appropriate pH for each enzyme. Assays were performed by incubating the samples with 100 μL 4-methylumbelliferyl-β-D-glucopyranoside substrate diluted in McIlvaine buffer for a period of 30 min. […]

[1] = GBA1/GBA2 KO GBA2 OE HEK293T cell lysate, 30 min pre-incubation, pH 5.8, n = 3 for β-D-Araf, n = 1 for α-L-Araf and β-L-Araf, read-out: Apparent IC50 GBA2
[2] = Apparent IC50 GBA2, GBA1/GBA2 KO GBA2 OE HEK293T cell lysate, 30 min pre-incubation, pH 5.8, n = 3 for β-D-Araf, n = 1 for α-L-Araf and β-L-Araf

SMILES	IC50 [1]	IC50 [2]	other results
[N-]=[N+]=NCCCCCCCCN1[C@@H]2[C@H](CO)[C@@H](O)[C@H](O)[C@@H]21 (stereo partly drawn) [Compound 2, β-D-arabinofuranosyl cyclitol aziridine-azidooctyl]	0.63 µM	–	–
CN1/C(=C/C=C/C=C/C2=[N+](CCCCCC(=O)NCc3cn(CCCCCCCCN4[C@@H]5[C@H](CO)[C@@H](O)[C@H](O)[C@@H]54)nn3)c3ccccc3C2(C)C)C(C)(C)c2ccccc21 (some centres unmarked) [ABP 5]	–	0.25 to 0.3 µM and 0.264 µM	–
OC[C@@H]1[C@@H](O)[C@H](O)[C@@H]2N[C@H]12 [Compound 1, β-D-Arabinofuranosyl cyclitol aziridine]	> 50 µM	–	IC50 (30 min pre-incubation, read-out: Apparent IC50 GBA2): > 50 µM
CC1=CC(C)=[N+]2C1=C(CCCCc1cn(CCCCCCCCN3[C@@H]4[C@H](CO)[C@@H](O)[C@H](O)[C@@H]43)nn1)c1c(C)cc(C)n1[B-]2(F)F (some centres unmarked) [ABP 3]	–	0.12 to 0.16 µM and 0.124 µM	–
COc1ccc(C2=[N+]3C(=C(CCCCc4cn(CCCCCCCCN5[C@@H]6[C@H](CO)[C@@H](O)[C@H](O)[C@@H]65)nn4)c4ccc(-c5ccc(OC)cc5)n4[B-]3(F)F)C=C2)cc1 (some centres unmarked) [ABP 4]	–	0.12 to 0.16 µM and 0.162 µM	–
O=C(CCCC[C@@H]1SC[C@@H]2NC(=O)N[C@@H]21)NCc1cn(CCCCCCCCN2[C@@H]3[C@H](CO)[C@@H](O)[C@H](O)[C@@H]32)nn1 (some centres unmarked) [ABP 6]	–	8.48 ± 0.763 µM	IC50 (Apparent IC50 GBA2, 30 min pre-incubation): > 8 µM
